Test results taken from US6737383B1, “Herbicidal oxadiazolidines” (priority 1999, dated 2004).

Assays:
morningglory = assay: Test B pre/postemergence morningglory; format: in vivo, Ipomoea hederacea
In short: (§1)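 Herbicidal effect was estimated by eye on a ten-point control scale after plants spent twelve to sixteen days in a greenhouse following soil or foliar treatment. Foliar sprays targeted plants at one to four leaves; all doses were formulated in a non-phytotoxic solvent with surfactant.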

giant foxtail = assay: Test B pre/postemergence giant foxtail; format: in vivo, Setaria faberii
In short: as §1

surinam grass = assay: Test B pre/postemergence surinam grass; format: in vivo, Brachiaria decumbens
In short: as §1

pigweed = assay: Test B pre/postemergence pigweed; format: in vivo, Amaranthus retroflexus
In short: as §1

crabgrass = assay: Test B pre/postemergence crabgrass; format: in vivo, Digitaria sanguinalis
In short: as §1

sugar beet = assay: Test B pre/postemergence sugar beet; format: in vivo, Beta vulgaris
In short: as §1

cocklebur = assay: Test B pre/postemergence cocklebur; format: in vivo, Xanthium strumarium
In short: as §1

soybean = assay: Test B pre/postemergence soybean; format: in vivo, Glycine max
In short: as §1

rape = assay: Test B pre/postemergence rape; format: in vivo, Brassica napus
In short: as §1

wild oat = assay: Test B pre/postemergence wild oat; format: in vivo, Avena fatua
In short: as §1

velvetleaf = assay: Test B pre/postemergence velvetleaf; format: in vivo, Abutilon theophrasti
In short: as §1

bedstraw = assay: Test B pre/postemergence bedstraw; format: in vivo, Galium aparine
In short: as §1

corn = assay: Test B pre/postemergence corn; format: in vivo, Zea mays
In short: as §1

wheat = assay: Test B pre/postemergence wheat; format: in vivo, Triticum aestivum
In short: as §1

blackgrass = assay: Test B pre/postemergence blackgrass; format: in vivo, Alopecurus myosuroides
In short: as §1

purple nutsedge = assay: Test B pre/postemergence purple nutsedge; format: in vivo, Cyperus rotundus
In short: as §1

[1] = Postemergence, Rate 62 g/ha, scale 0 to 10, 0 is no effect, 10 is complete control
[2] = Postemergence, Rate 125 g/ha, scale of 0 to 10 where 0 is no effect and 10 is complete control
[3] = Preemergence, Rate 125 g/ha, scale of 0 to 10 where 0 is no effect and 10 is complete control
[4] = Preemergence, Rate 250 g/ha, scale 0 (no effect) to 10 (complete control)
[5] = Rate 62 g/ha, Preemergence, scale 0 to 10
[6] = Rate 250 g/ha, Postemergence, scale 0 to 10, 0 is no effect, 10 is complete control
[7] = Rate 500 g/ha, Postemergence, scale 0 to 10, 0 is no effect, 10 is complete control
[8] = Rate 500 g/ha, Preemergence, scale 0 to 10 (0 no effect, 10 complete control)

Cc1nc(C(C)n2c(=O)on(C(=O)N(c3ccccc3)C(C)C)c2=O)sc1C (stereo not shown) [Compound 756]
Plant response rating, Morningglory (morningglory; [1]): 4
Morningglory plant response rating (morningglory; [2]): 7
Plant response rating, Morningglory (morningglory; [3]): 0
Morningglory plant response rating (morningglory; [4]): 0
Morningglory plant response rating (morningglory; [5]): 0
Morningglory plant response rating (morningglory; [6]): 10
Morningglory plant response rating (morningglory; [7]): 10
Morningglory plant response rating (morningglory; [8]): 0
Plant response rating, Giant foxtail (giant foxtail; [1]): 0
Giant foxtail plant response rating (giant foxtail; [2]): 0
Plant response rating, Giant foxtail (giant foxtail; [3]): 9
Giant foxtail plant response rating (giant foxtail; [4]): 9
Giant foxtail plant response rating (giant foxtail; [5]): 7
Giant foxtail plant response rating (giant foxtail; [6]): 0
Giant foxtail plant response rating (giant foxtail; [7]): 0
Giant foxtail plant response rating (giant foxtail; [8]): 9
Plant response rating, B. signalgrass (surinam grass; [1]): 0
B. signalgrass plant response rating (surinam grass; [2]): 0
B. signalgrass plant response rating (surinam grass; Preemergence, Rate 62 g/ha, scale of 0 to 10 where 0 is no effect and 10 is complete control): 0
Plant response rating, B. signalgrass (surinam grass; [3]): 0
B. signalgrass plant response rating (surinam grass; [4]): 0
B. signalgrass plant response rating (surinam grass; [6]): 0
B. signalgrass plant response rating (surinam grass; [7]): 2
B. signalgrass plant response rating (surinam grass; [8]): 3
Plant response rating, Redroot pigweed (pigweed; [1]): 0
Redroot pigweed plant response rating (pigweed; [2]): 0
Plant response rating, Redroot pigweed (pigweed; [3]): 0
Redroot pigweed plant response rating (pigweed; [4]): 0
Redroot pigweed plant response rating (pigweed; [5]): 0
Redroot pigweed plant response rating (pigweed; [6]): 0
Redroot pigweed plant response rating (pigweed; [7]): 3
Redroot pigweed plant response rating (pigweed; [8]): 0
Plant response rating, Crabgrass (crabgrass; [1]): 0
Crabgrass plant response rating (crabgrass; [2]): 0
Plant response rating, Crabgrass (crabgrass; [3]): 9
Crabgrass plant response rating (crabgrass; [4]): 9
Crabgrass plant response rating (crabgrass; [5]): 4
Crabgrass plant response rating (crabgrass; [6]): 0
Crabgrass plant response rating (crabgrass; [7]): 3
Crabgrass plant response rating (crabgrass; [8]): 9
Plant response rating, Sugarbeets (sugar beet; [1]): 0
Plant response rating, Sugarbeets (sugar beet; [3]): 0
Sugarbeets plant response rating (sugar beet; [4]): 0
Sugarbeets plant response rating (sugar beet; [5]): 0
Sugarbeets plant response rating (sugar beet; [6]): 0
Sugarbeets plant response rating (sugar beet; [7]): 0
Sugarbeets plant response rating (sugar beet; [8]): 0
Plant response rating, Cocklebur (cocklebur; [1]): 0
Cocklebur plant response rating (cocklebur; [2]): 0
Plant response rating, Cocklebur (cocklebur; [3]): 0
Cocklebur plant response rating (cocklebur; [4]): 0
Cocklebur plant response rating (cocklebur; [5]): 0
Cocklebur plant response rating (cocklebur; [6]): 0
Cocklebur plant response rating (cocklebur; [7]): 0
Cocklebur plant response rating (cocklebur; [8]): 0
Plant response rating, Soybean (soybean; [1]): 2
Plant response rating, Soybean (soybean; [3]): 0
Soybean plant response rating (soybean; [4]): 0
Soybean plant response rating (soybean; [5]): 0
Soybean plant response rating (soybean; [6]): 2
Soybean plant response rating (soybean; [7]): 2
Soybean plant response rating (soybean; [8]): 0
Plant response rating, Rape (rape; [1]): 0
Rape plant response rating (rape; [2]): 0
Plant response rating, Rape (rape; [3]): 0
Rape plant response rating (rape; [4]): 0
Rape plant response rating (rape; [5]): 0
Rape plant response rating (rape; [6]): 0
Rape plant response rating (rape; [7]): 3
Rape plant response rating (rape; [8]): 0
Plant response rating, Wild oats (wild oat; [1]): 0
Plant response rating, Wild oats (wild oat; [3]): 0
Wild oats plant response rating (wild oat; [4]): 0
Wild oats plant response rating (wild oat; [5]): 0
Wild oats plant response rating (wild oat; [6]): 0
Wild oats plant response rating (wild oat; [7]): 0
Wild oats plant response rating (wild oat; [8]): 0
Plant response rating, Velvetleaf (velvetleaf; [1]): 0
Plant response rating, Velvetleaf (velvetleaf; [3]): 0
Velvetleaf plant response rating (velvetleaf; [4]): 0
Velvetleaf plant response rating (velvetleaf; [5]): 0
Velvetleaf plant response rating (velvetleaf; [6]): 0
Velvetleaf plant response rating (velvetleaf; [7]): 0
Velvetleaf plant response rating (velvetleaf; [8]): 0
Plant response rating, Bedstraw (bedstraw; [1]): 0
Bedstraw plant response rating (bedstraw; [2]): 0
Plant response rating, Bedstraw (bedstraw; [3]): 0
Bedstraw plant response rating (bedstraw; [4]): 0
Bedstraw plant response rating (bedstraw; [5]): 0
Bedstraw plant response rating (bedstraw; [6]): 3
Bedstraw plant response rating (bedstraw; [8]): 0
Plant response rating, Corn (corn; [1]): 0
Corn plant response rating (corn; [2]): 0
Plant response rating, Corn (corn; [3]): 0
Corn plant response rating (corn; [4]): 0
Corn plant response rating (corn; [5]): 0
Corn plant response rating (corn; [6]): 0
Corn plant response rating (corn; [7]): 0
Corn plant response rating (corn; [8]): 0
Plant response rating, Wheat (wheat; [1]): 0
Plant response rating, Wheat (wheat; [3]): 0
Wheat plant response rating (wheat; [4]): 0
Wheat plant response rating (wheat; [5]): 0
Wheat plant response rating (wheat; [6]): 0
Wheat plant response rating (wheat; [7]): 0
Wheat plant response rating (wheat; [8]): 0
Plant response rating, Blackgrass (blackgrass; [1]): 0
Blackgrass plant response rating (blackgrass; [2]): 0
Plant response rating, Blackgrass (blackgrass; [3]): 2
Blackgrass plant response rating (blackgrass; [4]): 4
Blackgrass plant response rating (blackgrass; [5]): 0
Blackgrass plant response rating (blackgrass; [6]): 0
Blackgrass plant response rating (blackgrass; [7]): 3
Blackgrass plant response rating (blackgrass; [8]): 7
Plant response rating, Nutsedge (purple nutsedge; [1]): 0
Nutsedge plant response rating (purple nutsedge; [2]): 0
Plant response rating, Nutsedge (purple nutsedge; [3]): 0
Nutsedge plant response rating (purple nutsedge; [4]): 0
Nutsedge plant response rating (purple nutsedge; [6]): 0
Nutsedge plant response rating (purple nutsedge; [7]): 0
Nutsedge plant response rating (purple nutsedge; [8]): 7
